One assay has as its target T1, dopamine D-2 receptor (Rattus norvegicus, UniProt P61169).
T1 construct: Homogenized rat caudate was the source of the D-2 receptors; from tissue; host or cells: rat caudate homogenate
Briefly: D-2 receptor binding assay, competition with [^3 H]-spiperone in homogenized rat caudate. The conditions noted are these: rat caudate homogenate. The method, then:
Homogenized rat caudate was the source of the D-2 receptors. […] A. Frey, T. E. Cote, C. […] The molar affinity of the compound for the receptor binding site was calculated by the same method used for the D-1 receptor assay, assuming a competitive interaction between the compound and the radiolabeled ligand.

The target of a further assay is dopamine D-1 receptor (Rattus norvegicus, UniProt P18901). Briefly: D-1 receptor binding assay, competition with [^125 I]SCH-23982 in homogenized rat caudate.
The target in another assay is D-1 receptor. Briefly: D-1 antagonist activity in adenylate cyclase assay (antagonism of dopamine-induced increase in cAMP). The format is biochemical. The settings on record: 10 μM dopamine; goldfish retina or rat striatum homogenate. The method, then:
The functional activity of a compound was determined by assaying, in vitro, its ability to either stimulate the enzyme adenylate cyclase to produce more cAMP (agonist activity) or to antagonize a dopamine-induced increase in cAMP levels. The protocol for the adenylate cyclase assays was described by K. J. Watling and J. E. Dowling in J Neurochemistry, 1981, 36: 599 and by J. W. Kebabian, et al. in Proc Natl Acad Sci, USA, 1972, 69: 2145. In order to determine agonist activity, cell-free tissue homogenates are incubated in an ionic buffer solution containing ATP and the compound being evaluated. The tissue was obtained from either goldfish retina or rat striatum.
The Ki values were calculated as described by Y. C.

As a reminder, the Ki is the equilibrium dissociation constant of an inhibitor or competing ligand from its target. The IC50 is the concentration that inhibits the measured activity by half.

Counter-ions that a name gives are not always drawn. Like-named read-outs stand apart in the source and are kept apart here.

Sequence of dopamine D-1 receptor (P18901 whole entry): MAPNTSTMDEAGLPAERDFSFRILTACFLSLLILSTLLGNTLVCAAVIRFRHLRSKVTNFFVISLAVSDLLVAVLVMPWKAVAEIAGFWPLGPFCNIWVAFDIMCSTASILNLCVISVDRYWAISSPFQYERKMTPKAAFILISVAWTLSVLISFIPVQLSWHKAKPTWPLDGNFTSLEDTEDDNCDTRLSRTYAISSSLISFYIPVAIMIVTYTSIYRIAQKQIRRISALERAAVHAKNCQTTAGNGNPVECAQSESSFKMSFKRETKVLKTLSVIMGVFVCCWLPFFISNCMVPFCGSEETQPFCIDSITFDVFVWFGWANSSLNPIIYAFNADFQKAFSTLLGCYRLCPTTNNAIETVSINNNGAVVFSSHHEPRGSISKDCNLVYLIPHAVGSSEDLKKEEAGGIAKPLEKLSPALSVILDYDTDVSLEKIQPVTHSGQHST
T1 sequence (P61169 whole entry): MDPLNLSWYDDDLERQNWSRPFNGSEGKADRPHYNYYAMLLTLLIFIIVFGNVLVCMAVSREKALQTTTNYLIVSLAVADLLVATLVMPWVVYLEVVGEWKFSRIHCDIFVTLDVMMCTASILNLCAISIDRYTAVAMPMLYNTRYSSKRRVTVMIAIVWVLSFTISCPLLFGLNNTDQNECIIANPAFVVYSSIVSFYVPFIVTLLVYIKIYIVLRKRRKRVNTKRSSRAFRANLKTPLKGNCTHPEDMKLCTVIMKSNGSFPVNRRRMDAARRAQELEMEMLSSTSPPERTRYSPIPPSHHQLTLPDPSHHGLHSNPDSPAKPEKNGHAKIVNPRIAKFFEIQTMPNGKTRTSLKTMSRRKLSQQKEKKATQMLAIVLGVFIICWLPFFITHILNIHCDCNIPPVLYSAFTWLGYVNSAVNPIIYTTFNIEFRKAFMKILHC

Regarding `Oc1cc2c(cc1O)C1(CCc3ccccc31)CNCC2` (stereo not drawn) [Example 15, 7.8-Dihydroxy-1-(spiro-1'-indan)-2,3,4,5-tetrahydro-1H-3-benzazepine hydrobromide], the inhibitory constant (Ki) was above 100000 nM at dopamine D-2 receptor and 650 nM at dopamine D-1 receptor (read-out: D-1 Ki, rat caudate homogenate, [^125 I]SCH-23982).
Regarding `CSc1cc2c(cc1O)C1(CCCc3ccccc31)CN(C)CC2` (stereo not drawn) [Example 11, 8-Hydroxy-7-(methylthio)-3-methyl-1-(spiro-1'-1',2',3',4'-tetrahydronaphthalene)-2,3,4,5-tetrahydro-1H-3-benzazepine hydrochloride], the Ki at dopamine D-2 receptor worked out at 6800 nM; on D-1 receptor, 40 nM; on dopamine D-1 receptor it was 110 nM. Further, the IC50 against D-1 receptor is 230 nM.
In the same order, the values of `COc1cc2c(cc1O)C1(CCCc3ccccc31)CNCC2` (stereo not drawn) [Example 9, 8-Hydroxy-7-methoxy-1-(spiro-1'-1',2',3',4'-tetrahydronaphthalene)-2,3,4,5-tetrahydro-1H-3-benzazepine hydrochloride] are above 100000 nM, 2730 nM, 2610 nM and 15700 nM.
As for `CN1CCc2cc(Br)c(O)cc2C2(CCCCc3ccccc32)C1` (stereo not drawn) [Example 35, 7-Bromo-8-hydroxy-3-methyl-1-(spiro-5'-6',7',8',9'-tetrahydro-5'H-benzocycloheptene)-2,3,4,5-tetrahydro-1H-3-benzazepine hydrochloride], the Ki came to 7500 nM on dopamine D-2 receptor and 940 nM at dopamine D-1 receptor.
Regarding `COc1cc2c(cc1O)C1(CCCc3ccccc31)CN(C)CC2` (stereo not drawn) [Example 10, 8-Hydroxy-7-methoxy-3-methyl-1-(spiro-1'-1',2',3',4'-tetrahydronaphthalene)-2,3,4,5-tetrahydro-1H-3-benzazepine hydrochloride], the Ki turned out to be 562000 nM on dopamine D-2 receptor, 60 nM at D-1 receptor and 50 nM on dopamine D-1 receptor. The IC50 at D-1 receptor stood at 320 nM.
Consider `Oc1cc2c(cc1O)C1(CCCc3ccccc31)CNCC2` (stereo not drawn) [Example 26, 7.8-Dihydroxy-1-(spiro-1'-1',2', 3',4'-tetrahydronapthalene)-2,3,4,5-tetrahydro-1H-3-benzazepine hydrobromide], for which the Ki on dopamine D-2 receptor is above 100000 nM; at dopamine D-1 receptor, 16200 nM.
On to `CN1CCc2cc(Br)c(O)cc2C2(CCCc3ccccc32)C1` (stereo not drawn) [Example 31, 7-Bromo-8-hydroxy-3-methyl-1-(spiro-1'-1',2',3',4'-tetrahydronapthalene)-2,3,4,5-tetrahydro-1H-3-benzazepine hydrochloride], for which the Ki amounted to 10100 nM on dopamine D-2 receptor, 20 nM at D-1 receptor and 30 nM on dopamine D-1 receptor. Also, at D-1 receptor, 140 nM corresponded to half-maximal inhibition (IC50).
With `CN1CCc2cc(O)c(O)cc2C2(CCCCc3ccccc32)C1` (stereo not drawn) [Example 34, 7.8-Dihydroxy-3-methyl-1-(spiro-5'-6',7',8',9'-tetrahydro-5'H-benzocycloheptene)-2,3,4,5-tetrahydro-1H-3-benzazepine hydrobromide], the Ki came to 4200 nM on dopamine D-2 receptor and 8000 nM on dopamine D-1 receptor.
Turning to `CN1CCc2cc(Br)c(O)cc2C2(CCOc3ccccc32)C1` (stereo not drawn) [Example 137, 7-Bromo-8-hydroxy-3-methyl-1-(spiro-4'-(3',4'-dihydro-2'H-1'-benzopyran))-2,3,4,5-tetrahydro-1H-3-benzazepine hydrochloride], the Ki is above 100000 nM on dopamine D-2 receptor, 30 nM at D-1 receptor and 20 nM at dopamine D-1 receptor. Also, on D-1 receptor, the midpoint of inhibition, the IC50, lay at 140 nM.
Regarding `CN1CCc2cc([N+](=O)[O-])c(O)cc2C2(CCc3ccccc32)C1` (stereo not drawn) [Example 21, 8-Hydroxy-7-nitro-3-methyl-1-(spiro-1'-indan)-2,3,4,5-tetrahydro-1H-3-benzazepine hydrochloride], the results for the Ki at dopamine D-2 receptor, on D-1 receptor and on dopamine D-1 receptor were 39200 nM, 240 nM and 1320 nM, respectively. Besides, at D-1 receptor, the IC50 turned out to be 1380 nM.
In the same order, the values of `CN1CCc2ccc(O)cc2C2(CCOc3ccccc32)C1` (stereo not drawn) [Example 136, 8-Hydroxy-3-methyl-1-(spiro-4'-(3',4'-dihydro-2'-H-1'-benzopyran))-2,3,4,5-tetrahydro-1H-3-benzazepine hydrochloride] are above 100000 nM, 750 nM, 1670 nM and 4340 nM.
On to `CN1CCc2ccc(O)cc2C2(CCc3ccccc32)C1` (stereo not drawn) [Example 14, 8-Hydroxy-3-methyl-1-(spiro-1'-indan)-2,3,4,5-tetrahydro-1H-3-benzazepine hydrobromide], for which the Ki is above 100000 nM on dopamine D-2 receptor, 100 nM at D-1 receptor and 410 nM on dopamine D-1 receptor. This compound also came in with an IC50 against D-1 receptor of 580 nM.
On the same counts, the results for `COc1cc2c(cc1O)C1(CCCCc3ccccc31)CN(C)CC2` (stereo not drawn) [Example 32, 8-Hydroxy-7-methoxy-3-methyl-1-(spiro-5'-6',7',8',9'-tetrahydro-5'H-benzocycloheptene)-2,3,4,5-tetrahydro-1H-3-benzazepine hydrochloride] are 112000 nM, 560 nM, 1500 nM and 3240 nM.
Regarding `COc1cc2c(cc1O)C1(CCc3ccccc31)CN(C)CC2` (stereo not drawn) [Example 25, 8-Hydroxy-7-methoxy-3-methyl-1-(spiro-1'-indan)-2,3,4,5-tetrahydro-1H-3-benzazepine hydrochloride], the Ki stood at 9500 nM on dopamine D-2 receptor, 20 nM at D-1 receptor and 160 nM at dopamine D-1 receptor. Besides, it took 130 nM to reach half-maximal inhibition on D-1 receptor (IC50).
On the same counts, the results for `Oc1cc2c(cc1Br)CCNCC21CCCc2ccccc21` (stereo not drawn) [Example 30, 7-Bromo-8-hydroxy-1-(spiro-1'-1',2',3',4'-tetrahydronapthalene)-2,3,4,5-tetrahydro-1H-3-benzazepine hydrochloride] are 14600 nM, 160 nM, 680 nM and 920 nM.
Consider `CN1CCc2cc(O)c(O)cc2C2(CCc3ccccc32)C1` (stereo not drawn) [Example 16, 7,8-Dihydroxy-3-methyl-1-(spiro-1'-indan)-2,3,4,5-tetrahydro-1H-3-benzazepine formate], for which the results for the inhibition constant Ki at dopamine D-2 receptor, on D-1 receptor and on dopamine D-1 receptor were 5500 nM, 90 nM and 330 nM, respectively. This compound also registered an IC50 against D-1 receptor of 510 nM.
On the same counts, the results for `Oc1cc2c(cc1Br)CCNCC21CCc2ccccc21` (stereo not drawn) [Example 17, 7-Bromo-8-hydroxy-1-(spiro-1'-indan)-2,3,4,5-tetrahydro-1H-2,3,4,5-tetrahydro-1H-3-benzazepine hydrochloride] are 18000 nM, 140 nM, 310 nM and 830 nM.
In the case of `CN1CCc2ccc(O)cc2C2(CCCCc3ccccc32)C1` (stereo not drawn) [Example 33, 8-Hydroxy-3-methyl-1-(spiro-5'-6',7',8',9'-tetrahydro-5'H-benzocycloheptene)-2,3,4,5-tetrahydro-1H-3-benzazepine hydrochloride], the figures for the Ki on dopamine D-2 receptor and at dopamine D-1 receptor were 8800 nM and 3410 nM, respectively.
In the same order, the values of `Oc1ccc2c(c1)C1(CCCc3ccccc31)CNCC2` (stereo not drawn) [Example 28, 8-Hydroxy-1-(spiro-1'-1',2',3',4'-tetrahydronapthalene)-2,3,4,5-tetrahydro-1H-3-benzazepine hydrochloride] are 136000 nM and 23000 nM.
Turning to `COc1cc2c(cc1O)C1(CCc3ccccc31)CNCC2` (stereo not drawn) [Example 24, 8-Hydroxy-7-methoxy-1-(spiro-1'-indan)-2,3,4,5-tetrahydro-1H-3-benzazepine hydrochloride], the Ki on dopamine D-2 receptor is above 100000 nM; at D-1 receptor, 130 nM; on dopamine D-1 receptor, 810 nM. The compound further registered an IC50 against D-1 receptor of 530 nM.
On the same counts, the results for `COc1cc2c(cc1O)C1(CCOc3ccccc31)CN(C)CC2` (stereo not drawn) [Example 135, 8-Hydroxy-7-methoxy-3-methyl-1-(spiro-4'-(3',4'-dihydro-2'H-1'-benzopyran))-2,3,4,5-tetrahydro-1H-3-benzazepine hydrochloride] are 660 nM, 170 nM, 160 nM and 960 nM.
In the case of `Oc1ccc2c(c1)C1(CCc3ccccc31)CNCC2` (stereo not drawn) [Example 13, 8-Hydroxy-1-(spiro-1'-indan)-2,3,4,5-tetrahydro-1H-3-benzazepine hydrobromide], the inhibition constant Ki is above 100000 nM on dopamine D-2 receptor and 15900 nM at dopamine D-1 receptor.
Regarding `CN1CCc2ccc(O)cc2C2(CCCc3ccccc32)C1` (stereo not drawn) [Example 29, 8-Hydroxy-3-methyl-1-(spiro-1'-1',2',3',4'-tetrahydronapthalene)-2,3,4,5-tetrahydro-1H-3-benzazepine hydrochloride], the results for the Ki at dopamine D-2 receptor, at D-1 receptor and on dopamine D-1 receptor were 112000 nM, 740 nM and 440 nM, respectively. Also, the IC50 against D-1 receptor was 4240 nM.

The record behind these values is patent publication US5158948A (Abbott Laboratories, priority 1991, dated 1992).
